Measured values as given in US20030100508A1, “Carbohydrate epitope mimic compounds and uses thereof” (priority 1999, published 2003).

Assays:
laminin = biological target: T1, laminin (Mus musculus, UniProt P19137); experiment: Competition of L2 glycolipid binding to immobilized laminin by CD4 peptide; conditions: L2 glycolipids 3 μg/ml, varying CD-4 peptide
T1 construct: purchased Gibco/BRL
Procedure: The CD-4 peptide was conjugated to Ovalbumin (by similar methods as for BSA conjugation described in Materials and Methods) to generate CD4-OV, and binding experiments were performed to assess binding of conjugated peptide to laminin and L2 glycolipid. In particular, it was necessary to confirm that CD4 peptide and laminin compete directly in binding to L2/HNK-1 glycolipids. In this set of experiments, microtiter plates were coated with serial dilutions of either CD4-OV or laminin (each 10 μg/ml 1:1 in EtOH, allowed to dry overnight). The coated plates were then incubated in the following combinations: (a) CD4-OV coated plates with L2 glycolipid (3 μg/ml, 1 hr, RT); (b) laminin coated plates with L2 glycolipid (3 μg/ml. 1 hr, RT); and (c) laminin coated plates with CD-4-OV (1 μg/ml) and L2 glycolipids (3 μg/ml) for 1 hr at RT. Similar to the previous set of experiments L2-412 antibody was added (1:1000, 3 hr, RT), followed by HRP-conjugated-goat anti-rat antibody (2 hrs, RT) and detection by HRP-linked secondary antibody. The results (not shown) confirmed that CD4 peptide and laminin compete directly in binding to L2/HNK-1 glycolipids.
To further assess whether the CD-4 peptide could inhibit L2 glycolipid binding to laminin, a fixed amount of L2 glycolipid was incubated with immobilized laminin, in the presence of varying concentrations of CD-4 peptide. […]

[1] = L2 glycolipid binding to immobilized CD4 peptide; conditions: L2 glycolipid 3 μg/ml, detected with L2-412
Procedure: The ability of isolated L2/HNK-1 glycolipid to bind to immobilized CD-4 peptide was tested. CD-4 peptide was immobilized in water at different concentrations and dried onto microtiter plates overnight. The microtiter plates were blocked with 1% BSA in PBS, incubated with 3 ug/ml L2 glycolipid for 1.5 hours at room temperature, and washed with PBS. Bound L2 glycolipid was detected with L2-412 antibody followed by HRP-linked secondary antibody.
It was determined whether L2 glycolipid could bind substrate coated CD-4 peptide. CD4 peptide was coated onto microtiter plates by coating with serial dilutions of CD4 peptide (1 mg/ml 1:1 in EtOH) and allowed to dry overnight. The wells were incubated with L2-glycolipid (3 μg/ml) for 1 hour at RT, L2-412 antibody (1: 1000) then added and further incubated for 3 hours at RT. Goat anti-rat antibody was then added, incubated 2 hours at RT and detected by HRP-linked secondary antibody.
The CD-4 peptide was conjugated to Ovalbumin (by similar methods as for BSA conjugation described in Materials and Methods) to generate CD4-OV, and binding experiments were performed to assess binding of conjugated peptide to laminin and L2 glycolipid. In particular, it was necessary to confirm that CD4 peptide and laminin compete directly in binding to L2/HNK-1 glycolipids. […]

RASSSKSWITFDLKNKEVSVK [CD4 peptide]
competition of L2 glycolipid binding to immobilized laminin (laminin): competes with L2 glycolipid binding to immobilized laminin in a concentration-dependent manner
L2 glycolipid binding to immobilized CD4 peptide (words) [1]: binds to CD4 peptide in a concentration-dependent manner
L2 glycolipid binding to immobilized CD4 peptide (words) ([1]; listed as CD-4 peptide): binds L2 glycolipid in a concentration dependent manner
